Values of other authors, collected in patent US10640803B2, “Methods for determining chemosensitivity and chemotoxicity” (priority 2013, dated 2020).

Test system: CLL patients
Conditions: caused the halt of the study

SMILES: CC1(C)CCC(c2ccc(Cl)cc2)=C(CN2CCN(c3ccc(C(=O)NS(=O)(=O)c4ccc(N[C@H](CCN5CCOCC5)CSc5ccccc5)c(S(=O)(=O)C(F)(F)F)c4)cc3)CC2)C1 [ABT-263]
- adverse event in the study: occurrence of tumor lysis syndrome
